# Measurements from ChEMBL document CHEMBL1201862, “PubChem BioAssay data set” (2004).
# Active and inactive are the calls of the source.
# Columns and labels:
# [1] = molecular target: Cytochrome P450 2C9 (Homo sapiens, UniProt P11712)
# [2] = molecular target: Cytochrome P450 3A4 (Homo sapiens, UniProt P08684);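 further: CYP3A4 tested as one member of a cytochrome P450 panel screen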
# [3] = molecular target: Cytochrome P450 2C19 (Homo sapiens, UniProt P33261); assay: Cytochrome panel assay with activity outcomes. Panel member name: p450-cyp2c19 Compounds with AC50 equal or less than 10 uM are considered active; type: functional
# Sequence of Cytochrome P450 2C19 (P33261 whole entry): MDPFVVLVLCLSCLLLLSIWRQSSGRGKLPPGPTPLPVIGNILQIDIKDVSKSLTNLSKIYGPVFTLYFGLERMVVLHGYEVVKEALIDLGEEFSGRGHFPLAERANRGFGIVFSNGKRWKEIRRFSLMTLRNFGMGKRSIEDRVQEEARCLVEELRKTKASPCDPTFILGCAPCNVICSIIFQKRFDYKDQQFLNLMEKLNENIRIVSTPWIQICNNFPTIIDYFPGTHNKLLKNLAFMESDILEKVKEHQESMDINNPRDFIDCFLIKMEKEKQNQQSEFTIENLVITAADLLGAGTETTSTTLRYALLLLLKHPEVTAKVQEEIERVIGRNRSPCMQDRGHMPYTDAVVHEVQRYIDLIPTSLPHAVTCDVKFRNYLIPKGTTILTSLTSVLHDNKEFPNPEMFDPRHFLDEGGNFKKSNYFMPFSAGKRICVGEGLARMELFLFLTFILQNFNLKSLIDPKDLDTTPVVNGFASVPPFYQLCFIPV
# [4] = HEp-2 cell cytotoxicity, dose response, cytotoxicity control for RSV inhibitor project, HTS (AID 2410); type: functional; conditions: human respiratory syncytial virus
# [5] = inhibitors of intracellular T. cruzi replication, confirmation, NIH3T3 host cells, beta-gal luminescence (AID 2044); type: functional, cell-based;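 further: intracellular parasites grown in NIH/3T3 mouse fibroblasts as host cells; luminescent beta-galactosidase reporter signal from transgenic T. cruzi replicating inside host cells; inhibitors lower the luminescence signal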
# [6] = cytotoxicity toward NIH3T3 fibroblasts, dose response, counter-screen, cell-based, ATP luminescence, mouse fibroblasts (AID 2010); type: functional;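 further: cells exposed to compound for about 90 hours before reading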
# Sequence of Cytochrome P450 3A4 (P08684 whole entry): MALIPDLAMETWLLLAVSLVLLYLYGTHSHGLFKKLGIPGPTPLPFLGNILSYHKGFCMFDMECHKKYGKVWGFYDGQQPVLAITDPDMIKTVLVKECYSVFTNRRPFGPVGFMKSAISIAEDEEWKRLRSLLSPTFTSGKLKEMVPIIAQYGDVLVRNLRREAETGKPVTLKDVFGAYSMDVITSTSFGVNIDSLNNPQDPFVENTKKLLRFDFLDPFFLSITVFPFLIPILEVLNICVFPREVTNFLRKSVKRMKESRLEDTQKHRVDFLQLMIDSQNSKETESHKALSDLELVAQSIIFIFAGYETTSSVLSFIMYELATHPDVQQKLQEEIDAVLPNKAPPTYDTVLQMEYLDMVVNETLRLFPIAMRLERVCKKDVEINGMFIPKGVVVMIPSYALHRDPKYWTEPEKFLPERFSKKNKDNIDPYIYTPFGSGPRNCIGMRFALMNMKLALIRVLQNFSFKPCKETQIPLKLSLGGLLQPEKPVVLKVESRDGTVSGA
# Sequence of Cytochrome P450 2C9 (P11712 whole entry): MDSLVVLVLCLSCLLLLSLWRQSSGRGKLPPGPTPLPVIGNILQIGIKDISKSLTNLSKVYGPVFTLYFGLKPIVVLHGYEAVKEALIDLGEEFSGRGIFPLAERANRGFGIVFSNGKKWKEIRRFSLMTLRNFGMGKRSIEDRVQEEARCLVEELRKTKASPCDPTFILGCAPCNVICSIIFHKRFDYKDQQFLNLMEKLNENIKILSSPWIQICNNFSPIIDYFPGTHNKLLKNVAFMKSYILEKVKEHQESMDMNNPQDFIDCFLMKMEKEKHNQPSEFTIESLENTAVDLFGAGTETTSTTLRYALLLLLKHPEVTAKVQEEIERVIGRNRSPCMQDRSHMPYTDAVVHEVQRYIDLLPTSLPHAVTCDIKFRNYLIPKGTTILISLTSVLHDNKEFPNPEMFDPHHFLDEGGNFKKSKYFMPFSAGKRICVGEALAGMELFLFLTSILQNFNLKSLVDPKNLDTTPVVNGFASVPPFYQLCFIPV
smiles,measurement,setting,value
CC(C)COP(=O)(c1ccc(N(C)C)cc1)C(O)c1ccccc1F (stereo not given),AC50,[1],12.6 µM (inconclusive)
same,AC50,[2],3.98 µM (inconclusive)
CCOC(=O)[C@@H](O)Cc1cnc2ccccc2n1,AC50,[1],3.98 µM (inconclusive)
CCOC(=O)c1nnn(-c2nonc2N)c1-c1ccccc1,AC50,[1],10 µM (inconclusive)
N#C/C(=C\c1ccc(Oc2ccc(C(F)(F)F)cc2[N+](=O)[O-])cc1)c1nc2ccccc2[nH]1,AC50,[2],11.2 µM (inconclusive)
O=C(O)C(Cc1cccs1)C(=O)O,AC50,[3],inconclusive
FC(F)(F)c1cnc(N2CCC(=NOCc3ccc(Cl)cc3)CC2)c(Cl)c1,AC50,[3]; read-out: AC50,20 µM (inconclusive)
COc1ccc(N2CCN(C(=O)CSc3nnc4c(C)cc5cc(C)ccc5n34)CC2)cc1,CC50,[4],> 50 µM (active)
Clc1ccc(OCCOCCN2CCCCC2)c(Br)c1,EC50,[5],0.166 µM (active)
same,EC50,[6],13.2 µM (active)
CCCn1cnc2c(SCC(=O)O)nc(N)nc21,AC50,[3],inconclusive
COC(=O)[C@@]1(Cc2ccc(OC)cc2)[C@H]2c3cc(C(=O)N4CCCC4)n(Cc4ccc(OC(F)(F)F)cc4)c3C[C@H]2CN1C(=O)c1ccccc1,AC50,[3]; read-out: AC50,7.94 µM (inconclusive)
CC1CC(C)CN(C(=O)c2cc3cc(Br)cc(Br)c3o2)C1 (stereo not given),CC50,[4],18.9 µM (active)
CC(C)=CCC/C(C)=C/CO/N=C1/[C@H]2O[C@@H]2[C@@H](O)[C@H]2[C@H]1CCn1c(=O)n(Cc3cc4c(cc3Cl)OCO4)c(=O)n12,AC50,[2],3.98 µM (inconclusive)
CC1CCCC(NC(=O)C2CCCN2S(=O)(=O)c2cccc3nsnc23)C1C (stereo not given),CC50,[4],23.6 µM (active)
Cc1sc2nc(SCC(=O)C(C)(C)C)n(Cc3ccco3)c(=O)c2c1C,AC50,[3]; read-out: AC50,5.01 µM (inconclusive)
CCOC(=O)CSc1cc(C(F)(F)F)nc(-c2ccccn2)n1,AC50,[1],39.8 µM (inconclusive)
same,AC50,[3]; read-out: AC50,17.8 µM (inconclusive)
O=C(O)c1cc2c(ccc3ccccc32)[nH]1,CC50,[4],30.9 µM (active)
CCOc1ccccc1NC(=O)Nc1ccc(CC#N)cc1,CC50,[4],28 µM (active)
CCN1CCN(c2ccc(S(=O)(=O)N3CCOCC3)cc2NC(=O)CCC(C)C)CC1,EC50,[5],1.34 µM (active)
same,EC50,[6],> 60 µM (not active)
CCOc1cc(NC(=O)c2cccc(C)c2)c(OCC)cc1N=C(S)NCC1CCCO1 (stereo not given),AC50,[1],7.94 µM (inconclusive)
C=C(Br)CN(C)CC(=C)Br,AC50,[3],inconclusive
COCCn1c(=O)c(CCc2ccccc2)nc2cnc(OC)nc21,AC50,[1],20 µM (inconclusive)
Cc1cccc2cc(CN(Cc3nnnn3Cc3ccco3)C3CCCC3)c3nnnn3c12,CC50,[4],> 50 µM (active)
O=S(=O)(c1ccc(Cl)cc1)N1CCN(C2CCN(Cc3ccccc3)CC2)CC1,EC50,[5],1.07 µM (active)
same,EC50,[6],> 60 µM (not active)
ON(CCc1ccccn1)Cc1ccccc1,AC50,[2],3.98 µM (inconclusive)
CN(CCc1ccccn1)Cc1ccc(Cl)cc1Cl,AC50,[1],6.31 µM (inconclusive)
Cc1ccc(C2CC(c3cccs3)=NN2C(=O)CSc2nc3ccccc3o2)cc1 (stereo not given),CC50,[4],30.2 µM (active)
CC(Oc1ccc(-c2ccccc2)c(F)c1)c1ccn(S(=O)(=O)c2ccc(Cl)cc2)n1 (stereo not given),AC50,[2],15.8 µM (inconclusive)
COc1ccc2c(=O)cc(-c3ccncc3)oc2c1OC,AC50,[2],3.98 µM (inconclusive)
Cc1cc(C(=O)N2CCc3c([nH]c4ccccc34)C2c2cccc(Cl)c2)nn1C (stereo not given),EC50,[5],2.17 µM (active)
same,EC50,[6],> 60 µM (not active)
C=CCOc1cccc(CNn2cnnc2S)c1,AC50,[1],6.31 µM (inconclusive)
same,AC50,[2],28.2 µM (inconclusive)
O=C(Nc1ccccc1N1CCOCC1)c1cc2c(s1)CCCCC2,CC50,[4],> 50 µM (active)
COc1ccc(C)cc1Nc1n[n+](-c2ccccc2)c(-c2cccc(Cl)c2Cl)s1,EC50,[5],3 µM (active)
same,EC50,[6],15.4 µM (active)
Cc1ccc(C(=O)N2C3C=CC(C3)C2(C(F)(F)F)C(F)(F)F)cc1 (stereo not given),AC50,[1],39.8 µM (inconclusive)
COc1cccc(-c2nc(CS(=O)(=O)CC(=O)NCCCOC(C)C)c(C)o2)c1,AC50,[1],11.2 µM (inconclusive)
same,AC50,[3]; read-out: AC50,17.8 µM (inconclusive)
Cc1ccc(S(=O)(=O)NCC(=O)N(CC(=O)NCc2ccco2)Cc2cccs2)cc1,AC50,[1],15.8 µM (inconclusive)
CCOc1ccc(N/C(C)=C/C(=O)c2ccc(C)o2)cc1,EC50,[5],2.98 µM (active)
same,EC50,[6],> 60 µM (not active)
OCCC1CN(Cc2cccc(C(F)(F)F)c2)CCN1Cc1ccccc1 (stereo not given),EC50,[5],1.33 µM (active)
same,EC50,[6],> 60 µM (inconclusive)
CCN1CCN(CC(=O)Nc2ccc(S(=O)(=O)N3C(C)CCCC3C)cc2)CC1 (stereo not given),EC50,[5],1.07 µM (active)
same,EC50,[6],> 60 µM (not active)
COC(=O)c1cc(NC(=O)c2cc(-c3ccc(Cl)cc3)oc2C(F)(F)F)ccc1N1CCOCC1,EC50,[5],3.3 µM (active)
same,EC50,[6],> 60 µM (not active)
C[C@@H]1O[C@H](O[C@@H]2CC[C@@]3(C=O)[C@H]4CC[C@@]5(C)[C@@H](C6=CC(=O)OC6)CC[C@@]5(O)[C@@H]4CC[C@]3(O)C2)C[C@H](O)[C@@H]1O,AC50,[2],15.8 µM (inconclusive)
Oc1ccc2c3c1O[C@H]1c4oc5ccccc5c4C[C@]4(O)[C@H](C2)N(CC2CC2)CC[C@@]314,AC50,[2],20 µM (inconclusive)
CC(=O)N1CCC2(CC1)CN(c1ccccc1)C2,AC50,[3],inconclusive
CCCCCOc1ccc(C(=O)NCC2(c3ccccc3)CCOCC2)cc1,AC50,[2],31.6 µM (inconclusive)
COc1ccc(-c2nc(-c3cc([N+](=O)[O-])ccc3C)c(-c3ccccc3)[nH]2)cc1OC,CC50,[4],21.4 µM (active)
Cc1ccc(-n2nc3c(N4CCC(C(=O)NCc5cccc(F)c5)CC4)nnc(C)c3c2C)cc1,CC50,[4],32.7 µM (active)
C=CCn1c(SCC(=O)NC2CCCCC2)nnc1C1CCCCC1,AC50,[1],28.2 µM (inconclusive)
same,AC50,[3],inconclusive
COc1ccc2cc(S(=O)(=O)n3cnc(C)c3)ccc2c1,CC50,[4],> 50 µM (active)
COc1c(N2CCN(C(=S)Nc3ccc(F)cc3)C(C)C2)c(F)cc2c(=O)c(C(=O)O)cn(C3CC3)c12 (stereo not given),AC50,[3]; read-out: AC50,39.8 µM (inconclusive)
CCOc1ccccc1NC(=O)CSc1nc2c(c(=O)n1C)SC(C)C2 (stereo not given),CC50,[4],35.2 µM (active)
O=C(Cn1ccnc1)c1ccc(Cl)cc1,EC50,[5],> 30 µM (not active)
same,EC50,[6],> 30 µM (not active)
CCNC(=Nc1ccc(Cl)cc1)c1cccnc1,AC50,[3]; read-out: AC50,1.78 µM (inconclusive)
same,AC50,[2],22.4 µM (inconclusive)
N=C(N)N/N=C/c1ccc(Cl)c([N+](=O)[O-])c1,EC50,[5],0.108 µM (active)
same,EC50,[6],> 60 µM (not active)
CCCCCCCCCCCCCC(=O)O[C@H]1[C@@H](C)[C@@]2(O)[C@@H](C=C(CO)C[C@]3(O)C(=O)C(C)=C[C@@H]23)C2C(C)(C)[C@]21OC(C)=O (stereo not given in full),AC50,[1],10 µM (inconclusive)
COc1cccc(/N=C/c2c[nH]nc2O)c1,AC50,[1],20 µM (inconclusive)
same,AC50,[3]; read-out: AC50,35.5 µM (inconclusive)
Oc1ccccc1/N=C/c1c[nH]nc1O,AC50,[1],8.91 µM (inconclusive)
same,AC50,[3],inconclusive
C[C@]12CCC3C(CC[C@H]4CC(O)CC[C@]34C)C1CC/C2=N/O (stereo not given in full),CC50,[4],> 50 µM (active)
c1ccc(Nc2nc(-c3ccncc3)cs2)nc1,EC50,[5],0.526 µM (active)
same,EC50,[6],> 60 µM (not active)
Cc1nc(N2CCC(C)CC2)c2c(C)c(C(=O)Nc3ccc(C(F)(F)F)cc3)sc2n1,EC50,[5],1.41 µM (active)
same,EC50,[6],> 60 µM (inconclusive)
N#Cc1ccc(C(c2ccc(C#N)cc2)n2cncn2)cc1 [LETROZOLE],AC50,[3]; read-out: AC50,7.94 µM (inconclusive)
